Consider seven compounds from PubChem BioAssay AID330 (DTP/NCI, 2004).

Each structure is given as a SMILES string. Several values for one entry are separate records, joined by “and”; a condition that tells them apart may be missing. Equal entries are not always repeated. Inconclusive results and toxic doses are left out. Peptide text beside a SMILES is read from it.

This assay deals with P388 leukemia ip, CD2F1 mice, survival T/C. In words: NCI In Vivo Anticancer Drug Screen. Data for tumor model P388 Leukemia (intraperitoneal) in CD2F1 (CDF1) mice. The settings on record: endpoint: median survival time, higher = longer survival. The essentials: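 Mice carrying the transplanted tumor received test compound or vehicle. Survival was recorded in each group, and the value is the treated-group measurement divided by that of the vehicle-treated control group.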

As for `CC([NH-])C[NH-].O=C(O)C(=O)O.[Pt+2]`, the T/C runs as follows: (dose: 6.25 mg/kg/injection, schedule: Q04DX002 (ip), vehicle: saline with Tween-80) 151 % of control; (dose: 6.25 mg/kg/injection, schedule: Q04DX002 (ip), vehicle: saline) 150 % of control.
Take `C[C@]12CC[C@H](OC(=O)/C=C\c3ccc(N(CCCl)CCCl)cc3)CC1CC[C@@H]1C2CC[C@]2(C)NC(=O)CCC12` (stereo partly drawn): the T/C reads like this: (dose: 100.0 mg/kg/injection, schedule: Q01DX001 (ip), vehicle: saline with Tween-80) 100 % of control; (dose: 200.0 mg/kg/injection, schedule: Q01DX001 (ip), vehicle: saline with Tween-80) 100 % of control; (dose: 400.0 mg/kg/injection, schedule: Q01DX001 (ip), vehicle: saline with Tween-80) 100 % of control.
Consider `CCN(CC)CCn1[nH]c2c3ccc(=O)cc3sc3c(NCCN)ccc1c32`, for which the T/C (dose: 3.12 mg/kg/injection, schedule: Q01DX005 (ip), vehicle: water) is 122 % of control and 229 % of control and 242 % of control; the T/C (dose: 6.25 mg/kg/injection, schedule: Q01DX005 (ip), vehicle: water) is 184 % of control and 250 % of control and 280 % of control; the T/C (dose: 12.5 mg/kg/injection, schedule: Q01DX005 (ip), vehicle: water) is 166 % of control and 194 % of control and 271 % of control.
Turning to `N/N=C(/N)C1=NOCC1`, the T/C was 114 % of control (dose: 100.0 mg/kg/injection, schedule: Q04DX002 (ip), vehicle: saline) and 106 % of control (dose: 200.0 mg/kg/injection, schedule: Q04DX002 (ip), vehicle: saline).
On to `c1ccc([P+](COC[P+](c2ccccc2)(c2ccccc2)c2ccccc2)(c2ccccc2)c2ccccc2)cc1`, for which the T/C is, setting by setting: (dose: 6.25 mg/kg/injection, schedule: Q01DX009 (ip), vehicle: Klucel (hydroxypropylcellulose) (HPC)) 92 % of control; (dose: 12.5 mg/kg/injection, schedule: Q01DX009 (ip), vehicle: Klucel (hydroxypropylcellulose) (HPC)) 94 % of control.
As for `CC(C)C(NC(=O)C(CCCN=C(N)N)NC(=O)C(N)CCCCN)C(N)=O` (stereo not drawn) (H-Lys-Arg-Val-NH2; configuration not given here), the T/C (dose: 12.5 mg/kg/injection, schedule: Q01DX009 (ip), vehicle: water) is 105 % of control; the T/C (dose: 25.0 mg/kg/injection, schedule: Q01DX009 (ip), vehicle: water) is 103 % of control; the T/C (dose: 50.0 mg/kg/injection, schedule: Q01DX009 (ip), vehicle: water) was 99 % of control; the T/C (dose: 100.0 mg/kg/injection, schedule: Q01DX009 (ip), vehicle: water) was 105 % of control; the T/C (dose: 200.0 mg/kg/injection, schedule: Q01DX009 (ip), vehicle: water) is 100 % of control.
Take `Nc1ccc(S(=O)(=O)c2cc(O)c3ccccc3c2O)cc1`: for the setting “dose: 50.0 mg/kg/injection, schedule: Q01DX009 (ip), vehicle: Klucel (hydroxypropylcellulose) (HPC)”, the T/C was 104 % of control.
